From patent US8637526B2, “Pyrazolopyrimidine JAK inhibitor compounds and methods” (Genentech, Inc., priority 2008, dated 2014)
Like-named read-outs stand apart in the source and are kept apart here.

What was measured:
human JAK2 kinase domain = human JAK2 kinase domain (Homo sapiens (Human), UniProt O60674); assay: JAK2 Inhibition Assay Protocol (Caliper LabChip peptide phosphorylation); type: biochemical; conditions: enzymatic activity, 25 uM ATP; read-out: JAK2i Ki
Excerpt: Saltzman et al., Biochem. Biophys. Res. Commun. 246:627-633 (2004). The catalytically active kinase domain of human JAK2 was purified from extracts of SF9 insect cells infected with a recombinant baculovirus expression vector encoding the human JAK2 kinase domain (amino acid residues D812-G1132 according to the numbering of GenBank sequence accession number NP_004963.1). The activity of the JAK2 kinase domain can be measured by a number of direct and indirect methods, including quantification of phosphorylation of peptide substrates derived from the human JAK3 protein Saltzman et al., Biochem. Biophys. Res. Commun. 246:627-633 (2004). The activity of the JAK2 kinase domain was measured in vitro by monitoring phosphorylation of JAK3 derived peptides using the Caliper LabChip technology (see Examples).
The activity of the isolated kinase domain of JAK2 can be measured by monitoring phosphorylation of peptide substrates derived from the human JAK3 kinase in vitro Saltzman et al., Biochem. Biophys. Res. Commun. 246:627-633 (2004). The human JAK2 kinase domain was expressed with an N-terminal His6 tag followed by a thrombin cleavage site using the baculovirus expression vector system. The kinase domain expressed is defined as amino acid residues D812-G1132 according to the numbering of GenBank sequence accession number NP_004963.1. Recombinant DNA transfer vectors were co-transfected with BakPAK6 linearized DNA (Clontech Laboratories, Inc., Mountain View, Calif.) and the resulting viral stocks were amplified using standard protocols. Protein was produced in SF9 cells grown to a cell density of 2E6/mL in ESF921 media (Expression Systems LLC, Woodland, Calif.) and infected at an M.O.I. of 1 in Wave bioreactors. The cells were harvested 72 hours post infection, and active JAK2 enzyme was purified from the lysates of infected cells by Ni-NTA (Qiagen, Valencia, Calif.) column chromatography followed by Sephacryl S-200 (GE Healthcare, Piscataway, N.J.) column chromatography.
The catalytically active kinase domain of human JAK1, JAK2, JAK3 or TYK2 was purified from extracts of SF9 insect cells infected with a recombinant baculovirus expression vector encoding the human JAK1, JAK2, JAK3 or TYK2 kinase domains (JAK1 amino acid residues N852-D1154 according to the numbering of GenBank sequence accession number P23458, JAK2 amino acid residues D812-G1132 according to the numbering of GenBank sequence accession number NP_004963.1; JAK3 amino acid residues S783-S1124 according to the numbering of GenBank sequence accession number P52333, and TYK2 amino acid residues N873-C1187 according to the numbering of GenBank sequence accession number P29597). The activity of the JAK1, JAK2, JAK3 or TYK2 kinase domains can be measured by a number of direct and indirect methods, including quantification of phosphorylation of peptide substrates derived from the human JAK3 protein (Saltzman et al., Biochem. Biophys. Res. Commun. 246:627-633 (2004)). The activity of the JAK1, JAK2, JAK3 or TYK2 kinase domains was measured in vitro by monitoring phosphorylation of JAK3 derived peptides using the Caliper LabChip technology.
The activity of the isolated JAK2 kinase domain was measured by monitoring phosphorylation of a peptide derived from JAK3 ([…] fluorescently labeled on the N-terminus with 5-carboxyfluorescein using the Caliper LabChip technology (Caliper Life Sciences, Hopkinton, Mass.). […] Reactions were incubated at 22° C. in 384-well polypropylene microtiter plates for 30 minutes and then stopped by addition of […] of an EDTA containing solution (100 mM Hepes pH 7.2, 0.015% Brij-35, 150 mM EDTA), resulting in a final EDTA concentration of 50 mM. After termination of the kinase reaction, the proportion of phosphorylated product was determined as a fraction of total peptide substrate using the Caliper LabChip 3000 according to the manufacturer's specifications. Ki values were then determined using the Morrison tight binding model.

TF-1 cells = assay: IL-6-stimulated STAT3 phosphorylation in TF-1 cells (JAK1-dependent signaling, MSD); type: cell-based; conditions: Homo sapiens, read-out: IL6-pSTAT3 TF1 EC50
Method: The activities of compounds were determined in cell-based assays that are designed to measure JAK1 or JAK2-dependent signaling. Compounds were serially diluted in DMSO and incubated with TF-1 cells (American Type Culture Collection (ATCC); Manassas, Va.) in 384-well microtiter plates in OptiMEM medium without phenol red, 1% Charcoal/Dextran stripped FBS, 0.1 mM NEAA, 1 mM sodium pyruvate (Invitrogen Corp.; Carlsbad, Calif.) at a final cell density of 100,000 cells per well and a final DMSO concentration of 0.2%. Human recombinant IL-6 (R&D systems; Minneapolis, Minn.) or EPO (Invitrogen Corp.; Carlsbad, Calif.) was then added at a final concentration of 30 ng/mL or 10 Units/mL, respectively, to the microtiter plates containing the TF-1 cells and compound and the plates were incubated for 30 min at 37° C. Compound-mediated effects on STAT3 or STATS phosphorylation were then measured in the lysates of cells incubated in the presence of IL-6 or EPO, respectively, using the Meso Scale Discovery (MSD) technology (Gaithersburg, Md.) according to the manufacturer's protocol and EC50 values were determined.

NK92 cells = assay: IL-12-stimulated STAT4 phosphorylation in NK92 cells (TYK2-dependent signaling, MSD); type: cell-based; conditions: read-out: IL12-pSTAT4 NK92 EC50
Method: The activities of compounds were determined in cell-based assays that are designed to measure TYK2-dependent signaling. Compounds were serially diluted in DMSO and incubated with NK92 cells (American Type Culture Collection (ATCC); Manassas, Va.) in 96-well microtiter plates in RPMI medium at a final cell density of 100,000 cells per well and a final DMSO concentration of 0.57%. Human recombinant IL-12 (R&D systems; Minneapolis, Minn.) was then added at a final concentration of 10 ng/mL to the microtiter plates containing the NK92 cells and compound and the plates were incubated for 1 hr at 37° C. Compound-mediated effects on STAT4 phosphorylation were then measured in the lysates of incubated cells using the Meso Scale Discovery (MSD) technology (Gaithersburg, Md.) according to the manufacturer's protocol and EC50 values were determined

[1] = 0.5 h, TF-1 cells, IL-6 30 ng/mL, 30 min
[2] = NK92 cells, IL-12 10 ng/mL, 1 hr

human JAK2 kinase domain, sequence (O60674 812-1132): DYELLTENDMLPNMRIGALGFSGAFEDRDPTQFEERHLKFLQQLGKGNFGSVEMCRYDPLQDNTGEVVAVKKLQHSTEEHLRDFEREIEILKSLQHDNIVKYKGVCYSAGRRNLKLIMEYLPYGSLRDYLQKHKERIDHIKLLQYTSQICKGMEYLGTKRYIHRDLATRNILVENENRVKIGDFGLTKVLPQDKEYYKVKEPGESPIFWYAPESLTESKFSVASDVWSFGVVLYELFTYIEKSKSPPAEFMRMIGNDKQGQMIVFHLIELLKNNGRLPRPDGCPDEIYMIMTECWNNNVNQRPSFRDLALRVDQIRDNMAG

Which Ki (human JAK2 kinase domain) does the source give for Cc1cc(NC(=O)c2cnn3ccc(N)nc23)n(-c2cc(Cl)ccc2C)n1 [Example 226] here?
The Ki was 0.5 nM.

What about the EC50 (TF-1 cells; [1]) of the same compound?
Its EC50 is 170 nM.

And the EC50 (NK92 cells; [2])?
The EC50 was 336 nM.

Which results are given for Cc1nc(-c2ccccc2C)c(NC(=O)c2cnn3ccc(N)nc23)s1 [Example 231, 5-amino-pyrazolo[1,5-a]pyrimidine-3-carboxylic acid (2-methyl-4-o-tolyl-thiazol-5-yl)-amide]?
Ki (human JAK2 kinase domain): 1.8 nM; EC50 (TF-1 cells; TF-1, 0.5 h): 371 nM; EC50 (NK92 cells; NK92, 1 h): 3300 nM

Cc1cc(NC(=O)c2cnn3ccc(Nc4cccc(C(F)(F)F)c4)nc23)on1 [Example 240, 5-(3-Trifluoromethyl-phenylamino)-pyrazolo-[1,5-a]pyrimidine-3-carboxylic acid (3-methyl-isoxazol-5-yl)-amide] was tested. Which Ki (human JAK2 kinase domain) did it give?
The Ki was 3.2 nM.

And the EC50 (TF-1 cells; [1])?
The EC50 was 1600 nM.

What about the EC50 (NK92 cells; [2]) of the same compound?
Its EC50 is 579 nM.

For Nc1ccn2ncc(C(=O)Nc3c[nH]nc3-c3cc(Cl)ccc3Cl)c2n1 [Example 248, 5-Amino-pyrazolo[1,5-a]-pyrimidine-3-carboxylic acid [3-(2,5-dichloro-phenyl)-1H-pyrazol-4-yl]-amide], which Ki (human JAK2 kinase domain) is on record?
The Ki was 0.1 nM.

And the EC50 (TF-1 cells; [1])?
The EC50 was 165 nM.

What about the EC50 (NK92 cells; [2]) of the same compound?
Its EC50 is 158 nM.

Which Ki (human JAK2 kinase domain) does the source give for Nc1ccn2ncc(C(=O)Nc3ccnn3-c3cc(Cl)ccc3Cl)c2n1 [Example 277, 5-Amino-pyrazolo[1,5-a]-pyrimidine-3-carboxylic acid [2-(2,5-dichloro-phenyl)-2H-pyrazol-3-yl]-amide] here?
The Ki was 0.9 nM.

What about the EC50 (TF-1 cells; [1]) of the same compound?
Its EC50 is 514 nM.

And the EC50 (NK92 cells; [2])?
The EC50 was 603 nM.

For O=C(NC1CCOCC1)c1cnn2ccc(NC3Cc4ccccc4C3)nc12 [Example 297, 5-(Indan-2-ylamino)-pyrazolo[1,5-a]pyrimidine-3-carboxylic acid (tetrahydro-pyran-4-yl)-amide], which Ki (human JAK2 kinase domain) is on record?
The Ki was 1.6 nM.

What about the EC50 (TF-1 cells; [1]) of the same compound?
Its EC50 is 1400 nM.

And the EC50 (NK92 cells; [2])?
Its EC50 is 1100 nM.

With O=C(N[C@H]1CC[C@H](O)CC1)c1cnn2ccc(NC3CCc4ccccc43)nc12 (stereo partly drawn) [Example 299, 5-(Indan-1-ylamino)-pyrazolo[1,5-a]pyrimidine-3-carboxylic acid (4-hydroxy-cyclohexyl)-amide] as the compound, how does the Ki (human JAK2 kinase domain) read?
Its Ki is 0.8 nM.

And the EC50 (TF-1 cells; [1])?
Its EC50 is 1880 nM.

What about the EC50 (NK92 cells; [2]) of the same compound?
The EC50 was 1770 nM.

For Cc1cc(NC(=O)c2cnn3ccc(N)nc23)n(-c2ccccc2C)n1 [Example 343, 5-Amino-pyrazolo[1,5-a]-pyrimidine-3-carboxylic acid (5-methyl-2-o-tolyl-2H-pyrazol-3-yl)-amide], which Ki (human JAK2 kinase domain) is on record?
The Ki was 4.2 nM.

What about the EC50 (TF-1 cells; [1]) of the same compound?
Its EC50 is 380 nM.

What about the EC50 (NK92 cells; [2]) of the same compound?
Its EC50 is 5300 nM.
